Experimental data published in PubChem BioAssay (NCI).
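GI50: concentration for 50% inhibition of growth. TGI denotes the concentration required for complete inhibition of growth.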

Key:
Test in all cases: NCI tumour cell line growth inhibition, 384-well format
[1] = tested on: 786-0 renal
[2] = tested on: A498 renal
[3] = tested on: A549 NSCLC
[4] = tested on: ACHN renal
[5] = tested on: BT-549 breast
[6] = tested on: CAKI-1 renal
[7] = tested on: CCRF-CEM leukemia
[8] = tested on: COLO 205 colon
[9] = tested on: DU-145 prostate
[10] = tested on: EKVX NSCLC
[11] = tested on: HCC-2998 colon
[12] = tested on: HCT-116 colon
[13] = tested on: HCT-15 colon
[14] = tested on: HL-60(TB) leukemia
[15] = tested on: HOP-62 NSCLC
[16] = tested on: HOP-92 NSCLC
[17] = tested on: HS 578T breast
[18] = tested on: HT29 colon
[19] = tested on: IGROV1 ovarian
[20] = tested on: K-562 leukemia
[21] = tested on: KM12 colon
[22] = tested on: LOX IMVI melanoma
[23] = tested on: M14 melanoma
[24] = tested on: MALME-3M melanoma
[25] = tested on: MCF7 breast
[26] = tested on: MDA-MB-435 melanoma
[27] = tested on: MDA-MB-468 breast
[28] = tested on: MOLT-4 leukemia
[29] = tested on: NCI-H226 lung
[30] = tested on: NCI-H23 lung
[31] = tested on: NCI-H322M lung
[32] = tested on: NCI-H460 NSCLC
[33] = tested on: NCI-H522 lung
[34] = tested on: NCI/ADR-RES ovarian
[35] = tested on: OVCAR-3 ovarian
[36] = tested on: OVCAR-4 ovarian
[37] = tested on: OVCAR-8 ovarian
[38] = tested on: PC-3 prostate
[39] = tested on: RPMI-8226 leukemia
[40] = tested on: RXF 393 renal
[41] = tested on: SF-268 CNS
[42] = tested on: SF-295 CNS
[43] = tested on: SF-539 CNS
[44] = tested on: SK-MEL-2 melanoma
[45] = tested on: SK-MEL-28 melanoma
[46] = tested on: SK-MEL-5 melanoma
[47] = tested on: SK-OV-3 ovarian
[48] = tested on: SN12C renal
[49] = tested on: SNB-19 CNS
[50] = tested on: SNB-75 CNS
[51] = tested on: SW-620 colon
[52] = tested on: TK-10 renal
[53] = tested on: U251 glioblastoma
[54] = tested on: UACC-257 melanoma
[55] = tested on: UACC-62 melanoma

`CN(C)CC(C)(CN(C)C)C(=O)/C=C/c1c(Cl)cccc1Cl` showed a GI50 [1] of 1.79 µM, a TGI [1] of 3.22 µM and a GI50 [2] of 2.29 µM. It also gave a TGI [2] of 4.6 µM, a GI50 [3] of 3.72 µM and a TGI [3] of 13.2 µM. For the same compound, the GI50 [4] was 1.88 µM, the TGI [4] was 3.31 µM and the GI50 [5] was 2.52 µM. It also gave a TGI [5] of 5.73 µM, a GI50 [6] of 1.81 µM and a TGI [6] of 3.23 µM. It also gave a GI50 [7] of 1.58 µM, a TGI [7] of 2.96 µM and a GI50 [8] of 2.17 µM. The TGI [8] was 3.66 µM, the GI50 [9] was 5.18 µM and the TGI [9] was 16 µM. The GI50 [10] was 4.28 µM, the TGI [10] was 14.1 µM and the GI50 [11] was 2.24 µM. It also gave a TGI [11] of 6.9 µM, a GI50 [12] of 2.03 µM and a TGI [12] of 3.53 µM. It also gave a GI50 [13] of 1.86 µM, a TGI [13] of 3.33 µM and a GI50 [14] of 1.01 µM. For the same compound, the TGI [14] was 2.18 µM, the GI50 [15] was 2.32 µM and the TGI [15] was 3.96 µM. For the same compound, the GI50 [16] was 2.17 µM, the TGI [16] was 3.65 µM and the GI50 [17] was 2.17 µM. It also gave a TGI [17] of 4.24 µM, a GI50 [18] of 1.87 µM and a TGI [18] of 3.41 µM. The GI50 [19] was 1.87 µM, the TGI [19] was 3.36 µM and the GI50 [20] was 4.98 µM. For the same compound, the TGI [20] was 15.9 µM, the GI50 [21] was 1.22 µM and the TGI [21] was 2.92 µM. For the same compound, the GI50 [22] was 1.67 µM, the TGI [22] was 3.15 µM and the GI50 [23] was 2.09 µM. It also gave a TGI [23] of 4 µM, a GI50 [24] of 2.16 µM and a TGI [24] of 3.61 µM. The GI50 [25] was 0.512 µM, the TGI [25] was 1.76 µM and the GI50 [26] was 3.9 µM. It also gave a TGI [26] of 11.6 µM, a GI50 [27] of 2.1 µM and a TGI [27] of 3.59 µM. It also gave a GI50 [28] of 1.54 µM, a TGI [28] of 2.89 µM and a GI50 [29] of 1.76 µM. It also gave a TGI [29] of 3.34 µM, a GI50 [30] of 2.47 µM and a TGI [30] of 5.04 µM. It also gave a GI50 [31] of 3.86 µM, a TGI [31] of 12.3 µM and a GI50 [32] of 1.97 µM. It also gave a TGI [32] of 3.59 µM, a GI50 [33] of 1.71 µM and a TGI [33] of 3.09 µM. The GI50 [34] was 2.14 µM, the TGI [34] was 3.82 µM and the GI50 [35] was 1.91 µM. The TGI [35] was 3.37 µM, the GI50 [36] was 1.81 µM and the TGI [36] was 3.21 µM. The GI50 [37] was 1.95 µM, the TGI [37] was 3.41 µM and the GI50 [38] was 2.52 µM. The TGI [38] was 5.2 µM, the GI50 [39] was 0.2 µM and the TGI [39] was 0.346 µM. It also gave a GI50 [40] of 2.13 µM, a TGI [40] of 3.59 µM and a GI50 [41] of 5.61 µM. It also gave a TGI [41] of 15.8 µM, a GI50 [42] of 11.4 µM and a TGI [42] of 23.6 µM. It also gave a GI50 [43] of 1.9 µM, a TGI [43] of 3.33 µM and a GI50 [44] of 2.07 µM. For the same compound, the TGI [44] was 3.54 µM, the GI50 [45] was 10 µM and the TGI [45] was 21.7 µM. For the same compound, the GI50 [46] was 1.39 µM, the TGI [46] was 2.98 µM and the GI50 [47] was 4.38 µM. The TGI [47] was 15.4 µM, the GI50 [48] was 1.88 µM and the TGI [48] was 3.29 µM. For the same compound, the GI50 [49] was 4.18 µM, the TGI [49] was 12.4 µM and the GI50 [50] was 5.16 µM. The TGI [50] was 11.3 µM, the GI50 [51] was 2.01 µM and the TGI [51] was 3.48 µM. It also gave a GI50 [52] of 1.61 µM, a TGI [52] of 3.12 µM and a GI50 [53] of 2.12 µM. The TGI [53] was 3.74 µM, the GI50 [54] was 1.95 µM and the TGI [54] was 3.81 µM. For the same compound, the GI50 [55] was 2.16 µM and the TGI [55] was 4.2 µM.
